Data from US8399493B2, “Pyridinone derivatives and their use as positive allosteric modulators of mGluR2-receptors” (Janssen Pharmaceuticals, Inc., priority 2004, dated 2013).

| Structure (SMILES) | melting point [°C] |
| --- | --- |
| CCC(C)c1ccc(-c2ccc(=O)n(Cc3ccc(Cl)cc3)c2)cc1 (stereo not drawn) [2-05] | 73 |
| COc1ccc(-c2ccc(=O)n(Cc3ccc(Cl)cc3)c2)cn1 [2-62] | 191 |
| C[Si](C)(C)c1ccc(-c2ccc(=O)n(Cc3ccccc3)c2)cc1 | 132 |
| COc1ccc(-c2ccc(=O)n(Cc3nc4cc(F)ccc4o3)c2)cc1 [4-51, 1-((5-Fluorobenzo[d]oxazol-2-yl)methyl)-5-(4-methoxyphenyl)-pyridin-2(1H)-one] | 115 |
| CCOC(=O)c1ccc(-c2ccc(=O)n(Cc3ccccc3)c2)cc1 [1-24] | 115 |
| COc1ccc(-c2ccc(=O)n(Cc3ccccc3)c2)cn1 [1-29] | 180 to 181 |
| N#Cc1ccc(-c2ccc(=O)n(Cc3ccccc3)c2)cc1 [1-25] | 131 |
| O=c1ccc(-c2ccc3c(c2)CCO3)cn1Cc1ccc(Cl)cc1 [2-69] | 119 |
| CNC(=O)Cc1ccc(-c2ccc(=O)n(Cc3ccc(Cl)cc3)c2)cc1 [2-44, 2-(4-(1-(4-Chlorobenzyl)-1,6-dihydro-6-oxopyridin-3-yl)phenyl)-N-methylacetamide] | 183 |
| CN(C)C(=O)CCc1ccc(-c2ccc(=O)n(Cc3ccc(Cl)cc3)c2)cc1 [2-47] | 104 |
| CCOCc1ccc(-c2ccc(=O)n(Cc3ccc(Cl)cc3)c2)cc1 [2-25, 1-(4-Chlorobenzyl)-5-(4-(ethoxymethyl)phenyl)pyridin-2(1H)-one] | 109 |
| COc1cccc(C(=O)c2ccc(=O)n(Cc3ccc(Cl)cc3)c2)c1 [3-12, 1-(4-Chlorobenzyl)-5-(3-methoxybenzoyl)pyridin-2(1H)-one] | 104 |
| CN(C)c1ccc(-c2ccc(=O)n(Cc3ccc(Cl)cc3)c2)cn1 [2-64] | 164 |
| COc1ccc(-c2ccc(=O)n(Cc3ccc(F)cc3)c2)cc1 [4-10] | 103 |
| CC(C)Oc1ccc(-c2ccc(=O)n(Cc3ccc(Cl)cc3)c2)cc1 [2-21] | 118 |
| COc1ccc(-c2ccc(=O)n(Cc3ccccc3C)c2)cc1 [4-05] | 122 |
| COc1ccc(-c2ccc(=O)n(Cc3c(F)cc(F)cc3F)c2)cc1 [4-17] | 112 |
| CC(C)(O)c1ccc(-c2ccc(=O)n(Cc3ccc(Cl)cc3)c2)cc1 [2-15, 1-(4-Chlorobenzyl)-5-(4-(2-hydroxypropan-2-yl)phenyl)pyridin-2(1H)-one] | 157 |
| COc1ccc(-c2ccc(=O)n(Cc3ccc(Cl)cc3)c2)c(F)c1 [2-11] | 89 |
| COc1ccc(-c2ccc(=O)n(Cc3ccc(C(F)(F)F)cc3)c2)cc1 [4-07] | 131 to 132 |
| CNC(=O)CCc1ccc(-c2ccc(=O)n(Cc3ccc(Cl)cc3)c2)cc1 [2-46] | 197 |
| COc1ccc(-c2ccc(=O)n(Cc3nc4ccccc4s3)c2)cc1 [4-53] | 121 |
| Cc1ccc(-c2ccc(=O)n(Cc3ccccc3)c2)cc1 [1-03] | 110 |
| COc1ccc(-c2ccc(=O)n(Cc3ccc(C)cc3)c2)cc1 [4-06] | 123 to 124 |
| CS(=O)(=O)c1ccc(-c2ccc(=O)n(Cc3ccc(Cl)cc3)c2)cc1 [2-54] | 199 to 200 |
| CCc1ccc(Cn2cc(-c3ccc(OC)cc3)ccc2=O)cn1 [4-45, 1-((6-Ethylpyridin-3-yl)methyl)-5-(4-methoxyphenyl)pyridin-2(1H)-one] | 130 |
| CN(Cc1ccc(=O)n(Cc2ccc(Cl)cc2)c1)c1ccccc1 [3-07, 1-(4-Chlorobenzyl)-5-((methyl(phenyl)amino)methyl)pyridin-1-2(1H)-one] | 106 |

| Structure (SMILES) | melting point [°C] |
| --- | --- |
| O=c1ccc(-c2cc(F)cc(F)c2)cn1Cc1ccccc1 [1-09] | 98 |
| O=c1ccc(-c2ccoc2)cn1Cc1ccc(Cl)cc1 [2-59] | 112 to 114 |
| COc1ccc(-c2ccc(=O)n(Cc3cccc(C#N)c3)c2)cc1 [4-29] | 165 |
| CSc1ccc(-c2ccc(=O)n(Cc3ccc(Cl)cc3)c2)cc1 [2-52] | 132 |
| CC(C)COc1ccc(-c2ccc(=O)n(Cc3ccccc3)c2)cc1 [1-18] | 110 |
| COc1ccc(-c2ccc(=O)n(Cc3nc4c(F)cccc4s3)c2)cc1 [4-54] | 126 |
| O=c1ccc(-c2cnn(Cc3ccccc3)c2)cn1Cc1ccc(Cl)cc1 [2-58] | 140 to 144 |
| COc1ccc(-c2ccc(=O)n(Cc3noc(-c4ccccc4)n3)c2)cc1 [4-41] | 104 |
| Cc1ccc(-c2ccc(=O)n(Cc3ccccc3)c2)cc1C [1-06] | 118 |
| CN(C)c1ccc(-c2ccc(=O)n(Cc3ccc(Cl)cc3)c2)cc1 [2-48] | 155 |
| COc1ccc(-c2ccc(=O)n(Cc3ccc(C)c(F)c3)c2)cc1 [4-36] | 98 to 100 |
| COc1ccc(Cn2cc(-c3ccc(OC)cc3)ccc2=O)cc1 [4-23] | 103 |
| COc1ccc(-c2ccc(=O)n(Cc3nc(-c4ccc(F)cc4)no3)c2)cc1 [4-42, 1-((3-(4-Fluorophenyl)-1,2,4-oxadiazol-5-yl)methyl)-5-(4-methoxyphenyl)pyridin-2(1H)-one] | 123 |
| O=c1ccc(-c2cccc(Cl)c2)cn1Cc1ccccc1 [1-10] | 120 |
| O=c1ccc(-c2ccc3cccnc3c2)cn1Cc1ccc(Cl)cc1 [2-71] | 261 |
| COc1ccc(-c2ccc(=O)n(Cc3ccccc3Cl)c2)cc1 [4-18] | 125 |
| Cc1ccc(-c2ccc(=O)n(Cc3ccc(Cl)cc3)c2)cc1 [2-03] | 126 to 128 |
| O=c1ccc(-c2ccc(OC(F)(F)F)cc2)cn1Cc1ccccc1 [1-20] | 115 |
| O=c1ccc(-c2ccc(Cl)c(Cl)c2)cn1Cc1ccccc1 [1-12] | 134 |
| Cn1ccc2cc(-c3ccc(=O)n(Cc4ccc(Cl)cc4)c3)ccc21 [2-68] | 144 to 147 |
| COC(=O)c1ccc(Cn2cc(-c3ccc(OC)cc3)ccc2=O)cc1 [4-27] | 147 to 150 |
| O=C(O)Cc1ccc(-c2ccc(=O)n(Cc3ccc(Cl)cc3)c2)cc1 [2-31] | 180 |
| O=c1ccc(-c2ccc3nccnc3c2)cn1Cc1ccc(Cl)cc1 [2-72] | 120 |
| COc1ccc(-c2ccc(=O)n(Cc3ccc(Cl)nc3)c2)cc1 [4-44] | 135 |
| O=c1ccc(-c2ccc(Cl)nc2)cn1Cc1ccc(Cl)cc1 [2-63] | 169 |
| COc1cccc(C(O)c2ccc(=O)n(Cc3ccc(Cl)cc3)c2)c1 (stereo not drawn) [3-10, 1-(4-Chlorobenzyl)-5-(hydroxy(3-methoxyphenyl)methyl)pyridin-2(1H)-one] | 120 |

More lines, now with the values ahead:

| melting point [°C] | Structure (SMILES) |
| --- | --- |
| 99 | O=c1ccc(-c2ccc3c(c2)CCO3)cn1Cc1ccc(F)c(F)c1 [6-17] |
| 85 | CN(C)CCOc1ccc(-c2ccc(=O)n(Cc3ccc(Cl)cc3F)c2)cc1 [6-44] |
| 134 | COc1ccc(Cn2cc(-c3ccc(C#N)cc3)ccc2=O)cc1 [6-77] |
| 181 | O=c1ccc(-c2ccc3c(c2)OCO3)cn1Cc1ccc(F)c(F)c1 [6-18] |
| 102 | O=c1ccc(Br)cn1Cc1ccc(Cl)cc1F [6-20] |
| 131 | CC(=O)N(CCCOc1ccc(-c2ccc(=O)n(Cc3ccc(Cl)cc3F)c2)cc1)C(C)=O [6-56] |
| 90 | Cc1nc(COc2ccc(-c3ccc(=O)n(Cc4ccc(Cl)cc4F)c3)cc2)cs1 [6-66] |
| 135 | Cc1cc(COc2ccc(-c3ccc(=O)n(Cc4ccc(Cl)cc4F)c3)cc2)no1 [6-63] |
| 143 | CC(=O)NCc1cccc(-c2ccc(=O)n(Cc3ccc(Cl)cc3F)c2)c1 [6-60] |
| 114 | O=c1ccc(-c2ccc(OCc3ccco3)cc2)cn1Cc1ccc(Cl)cc1F [6-37] |
| 90 | COCCOc1ccc(-c2ccc(=O)n(Cc3ccc(Cl)cc3F)c2)cc1 [6-36] |
| 142 | CC(=O)c1ccc(-c2ccc(=O)n(Cc3ccc(F)c(F)c3)c2)cc1 [6-12] |
| 97 | COc1ccc(Cn2cc(-c3ccc(C(C)=O)cc3)ccc2=O)cc1 [6-76] |
| 70 | Nc1cccc(-c2ccc(=O)n(Cc3ccc(Cl)cc3F)c2)c1 [6-22] |
| 241 | O=c1ccc(-c2ccc(-c3nnn[nH]3)cc2)cn1Cc1ccc(Cl)cc1F [6-68] |
| 149 | O=c1ccc(-c2ccccc2)cn1Cc1nc2ccccc2s1 [6-81] |
| 96 | O=c1ccc(-c2cccs2)cn1Cc1ccc(F)c(F)c1 [6-15] |
| 160 | N#CCOc1ccc(-c2ccc(=O)n(Cc3ccc(Cl)cc3F)c2)cc1 [6-46, 2-(4-(1-(4-Chloro-2-fluorobenzyl)-6-oxo-1,6-dihydropyridin-3-yl)-phenoxy)acetonitrile] |
| 124 | COC(=O)Oc1ccc(-c2ccc(=O)n(Cc3ccc(Cl)cc3F)c2)cc1 [6-39, 4-(1-(4-Chloro-2-fluorobenzyl)-6-oxo-1,6-dihydropyridin-3-yl)phenyl methyl carbonate] |
| 121 | CC(=O)N(CCOc1ccc(-c2ccc(=O)n(Cc3ccc(Cl)cc3F)c2)cc1)C(C)=O [6-55] |
| 226 | NCCOc1ccc(-c2ccc(=O)n(Cc3ccc(Cl)cc3F)c2)cc1 [6-42] |
| 139 | NCc1ccc(-c2ccc(=O)n(Cc3ccc(Cl)cc3F)c2)cc1 [6-24] |
| 140 | N#Cc1cccc(-c2ccc(=O)n(Cc3ccc(Cl)cc3F)c2)c1 [6-25] |
| 153 | CC(=O)NCCOc1ccc(-c2ccc(=O)n(Cc3ccc(Cl)cc3F)c2)cc1 [6-53, N-(2-(4-(1-(4-Chloro-2-fluorobenzyl)-6-oxo-1,6-dihydropyridin-3-yl)phenoxy)ethyl)acetamide] |
| 88 | CC(C)COc1ccc(-c2ccc(=O)n(Cc3ccc(Cl)cc3F)c2)cc1 [6-33] |
| 224 | O=c1ccc(-c2ccc(O)cc2)cn1Cc1ccc(Cl)cc1F [6-21] |
| 86 | O=c1ccc(COc2ccccc2)cn1Cc1ccc(Cl)cc1F [16-04] |
| 93 | O=c1cc(OCCc2ccccc2)ccn1Cc1cccc(F)c1 [7-03, 1-(3-Fluorobenzyl)-4-phenethoxypyridin-2(1H)-one] |
